Test system: collagen-induced thrombocyte aggregation of human blood plasma which is rich of platelets
Assay: Collagen-induced thrombocyte aggregation in platelet-rich human plasma (aggregometry)
Description: While the other conditions of the experiment remained the same as in Example 1, the collagen-induced thrombocyte aggregation was measured with different concentrations of genistein and glutamic acid dipeptide.

Row | Compound | thrombocyte aggregation (glutamic acid dipeptide 100 μmolar, without genistein, control 65%) | maximum thrombocyte aggregation (Example 3: 50 uM genistein, absence of glutamic acid dipeptide) [%] | maximum thrombocyte aggregation (Example 4: 50 uM genistein, 0 uM alanine dipeptide, control about 70%) | maximum thrombocyte aggregation (genistein 100 uM, collagen-induced, control without genistein about 65%) | maximum thrombocyte aggregation (genistein 150 uM, collagen-induced, control about 65%) | maximum thrombocyte aggregation (genistein 200 uM, collagen-induced, control about 65%)
1 | glutamic acid dipeptide | about 60% | – | – | – | – | –
2 | O=c1c(-c2ccc(O)cc2)coc2cc(O)cc(O)c12 [genistein, Genistein] | – | 25 | about 60% | about 35% | about 23% | about 5%

— patent US20100035824A1, “Synergistic Pharmaceutical Composition” (priority 2005, published 2010)
